Laboratory results reported in patent publication US20030170662A1, “Method for screening substance specifically inhibiting non-mevalonate pathway” (priority 2000, published 2003).

How the values were obtained:
B. subtilis 168 (pBMV4) = assay: paper disk growth inhibition on agar medium, B. subtilis 168 (pBMV4); type: cell-based, Bacillus subtilis; conditions: 50 μl of 5 μg/ml fosmidomycin on paper disk, 37° C. overnight
Method: The B. subtilis 168 (pBMV4) was subjected to shaking culturing at 37° C. overnight in 5 ml of LB liquid medium containing 3.4 μg/ml chloramphenicol. […]
The gene on the pBMV4 is expressed only in the presence of IPTG 50 μl of aqueous solution of 5 μg/ml fosmidomycin was dropped on a paper disk, and then the paper disk was placed on the above two types of agar mediums, followed by culturing at 37° C. overnight.

[1] = system: B. subtilis delypgA (pBMV4); assay: paper disk growth inhibition on agar medium, B. subtilis delypgA (pBMV4); type: cell-based, Bacillus subtilis; conditions: 50 μl of 5 μg/ml fosmidomycin on paper disk, 37° C. overnight
Method: The B. subtilis delypgA (pBMV4) was subjected to shaking culturing at 37° C. overnight in 5 ml of LB liquid medium containing 3.4 μg/ml chloramphenicol.
One thousandth amount of the above culture solution was added into Nutrient Broth “Eiken” (Eiken Chemical Co., Ltd.) containing 3.4 μg/ml chloramphenicol to prepare an agar medium.
One thousandth amount of the above culture solution was added into Nutrient Broth “Eiken” containing 1 mM IPTG, 3.4 μg/ml chloramphenicol and 0.02% mevalonic acid to prepare an agar medium. The gene on the pBMV4 is expressed only in the presence of IPTG
50 μl of aqueous solution of 5 μg/ml fosmidomycin was dropped on a paper disk, and then the paper disk was placed on the above two types of agar mediums, followed by culturing at 37° C. overnight.

[2] = medium to which mevalonic acid and IPTG were added
[3] = medium to which mevalonic acid and IPTG were not added

For `O=CN(O)CCCP(=O)(O)O` [fosmidomycin], which growth inhibition ring (B. subtilis 168 (pBMV4); [2]) is on record?
The growth inhibition ring was “not observed”.

What about the growth inhibition ring (B. subtilis 168 (pBMV4); [3]) of the same compound?
The growth inhibition ring was “observed”.

What about the growth inhibition ring [1, 2] of the same compound?
The growth inhibition ring was “not observed”.

And the growth inhibition ring [1, 3]?
The growth inhibition ring was “observed”.
